Legend:
[1] = molecular target: Tyrosine-protein kinase BTK (Homo sapiens, UniProt Q06187); experiment: Inhibition of human recombinant full length N-terminal His6-tagged BTK expressed in baculovirus infected Sf9 cells using fluorescein labeled Blk/Lyntide substrate preincubated with enzyme for 60 mins followed by further incubation with substrate and ATP for 120 mins by IMAP assay
[2] = molecular target: T1, Epidermal growth factor receptor (Homo sapiens, UniProt P00533); experiment: Inhibition of recombinant human GST-tagged EGFR (668 to 1210 residues) expressed in baculovirus expression system using Tyr 04 peptide as substrate preincubated for 1 hr by Z'-LYTE assay
T1 sequence (P00533 whole entry, the tested form may be a part): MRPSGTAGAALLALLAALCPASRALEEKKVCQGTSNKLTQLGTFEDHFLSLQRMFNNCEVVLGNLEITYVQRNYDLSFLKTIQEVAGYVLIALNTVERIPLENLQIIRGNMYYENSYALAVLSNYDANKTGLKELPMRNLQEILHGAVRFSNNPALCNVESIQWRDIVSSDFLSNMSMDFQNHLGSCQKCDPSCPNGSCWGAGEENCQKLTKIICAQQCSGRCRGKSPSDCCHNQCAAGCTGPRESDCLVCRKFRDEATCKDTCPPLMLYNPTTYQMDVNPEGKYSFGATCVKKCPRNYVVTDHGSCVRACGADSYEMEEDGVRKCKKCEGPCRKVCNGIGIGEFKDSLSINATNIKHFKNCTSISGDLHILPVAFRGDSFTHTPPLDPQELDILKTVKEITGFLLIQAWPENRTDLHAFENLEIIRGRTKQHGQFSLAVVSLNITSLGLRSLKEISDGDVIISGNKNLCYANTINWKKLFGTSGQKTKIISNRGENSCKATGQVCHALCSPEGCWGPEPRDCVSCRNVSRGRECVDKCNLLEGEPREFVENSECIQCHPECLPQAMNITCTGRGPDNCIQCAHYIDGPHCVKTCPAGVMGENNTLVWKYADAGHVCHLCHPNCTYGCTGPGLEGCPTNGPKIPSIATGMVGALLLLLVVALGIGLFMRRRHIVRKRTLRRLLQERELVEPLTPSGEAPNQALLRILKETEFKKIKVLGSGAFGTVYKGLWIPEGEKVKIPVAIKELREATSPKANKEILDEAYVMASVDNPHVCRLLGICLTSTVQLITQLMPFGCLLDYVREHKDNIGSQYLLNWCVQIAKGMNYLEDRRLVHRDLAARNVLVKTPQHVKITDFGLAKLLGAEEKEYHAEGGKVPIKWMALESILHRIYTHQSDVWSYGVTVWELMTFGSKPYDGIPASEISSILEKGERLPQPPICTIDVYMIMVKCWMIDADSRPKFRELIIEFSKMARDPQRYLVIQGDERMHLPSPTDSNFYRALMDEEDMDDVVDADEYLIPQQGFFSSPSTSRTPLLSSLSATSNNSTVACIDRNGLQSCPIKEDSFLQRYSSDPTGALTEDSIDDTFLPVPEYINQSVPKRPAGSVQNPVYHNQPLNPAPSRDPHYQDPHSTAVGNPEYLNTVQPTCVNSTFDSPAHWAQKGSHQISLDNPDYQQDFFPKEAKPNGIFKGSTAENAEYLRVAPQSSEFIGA

[3] = molecular target: T2, Tyrosine-protein kinase JAK3 (Homo sapiens, UniProt P52333); experiment: Inhibition of recombinant human GST-tagged JAK3 catalytic domain (781 to 1124 residues) expressed in baculovirus expression system using tyrosine-6 peptide as substrate preincubated for 1 hr in presence of ATP by Z'-LYTE assay
T2 sequence (P52333 whole entry): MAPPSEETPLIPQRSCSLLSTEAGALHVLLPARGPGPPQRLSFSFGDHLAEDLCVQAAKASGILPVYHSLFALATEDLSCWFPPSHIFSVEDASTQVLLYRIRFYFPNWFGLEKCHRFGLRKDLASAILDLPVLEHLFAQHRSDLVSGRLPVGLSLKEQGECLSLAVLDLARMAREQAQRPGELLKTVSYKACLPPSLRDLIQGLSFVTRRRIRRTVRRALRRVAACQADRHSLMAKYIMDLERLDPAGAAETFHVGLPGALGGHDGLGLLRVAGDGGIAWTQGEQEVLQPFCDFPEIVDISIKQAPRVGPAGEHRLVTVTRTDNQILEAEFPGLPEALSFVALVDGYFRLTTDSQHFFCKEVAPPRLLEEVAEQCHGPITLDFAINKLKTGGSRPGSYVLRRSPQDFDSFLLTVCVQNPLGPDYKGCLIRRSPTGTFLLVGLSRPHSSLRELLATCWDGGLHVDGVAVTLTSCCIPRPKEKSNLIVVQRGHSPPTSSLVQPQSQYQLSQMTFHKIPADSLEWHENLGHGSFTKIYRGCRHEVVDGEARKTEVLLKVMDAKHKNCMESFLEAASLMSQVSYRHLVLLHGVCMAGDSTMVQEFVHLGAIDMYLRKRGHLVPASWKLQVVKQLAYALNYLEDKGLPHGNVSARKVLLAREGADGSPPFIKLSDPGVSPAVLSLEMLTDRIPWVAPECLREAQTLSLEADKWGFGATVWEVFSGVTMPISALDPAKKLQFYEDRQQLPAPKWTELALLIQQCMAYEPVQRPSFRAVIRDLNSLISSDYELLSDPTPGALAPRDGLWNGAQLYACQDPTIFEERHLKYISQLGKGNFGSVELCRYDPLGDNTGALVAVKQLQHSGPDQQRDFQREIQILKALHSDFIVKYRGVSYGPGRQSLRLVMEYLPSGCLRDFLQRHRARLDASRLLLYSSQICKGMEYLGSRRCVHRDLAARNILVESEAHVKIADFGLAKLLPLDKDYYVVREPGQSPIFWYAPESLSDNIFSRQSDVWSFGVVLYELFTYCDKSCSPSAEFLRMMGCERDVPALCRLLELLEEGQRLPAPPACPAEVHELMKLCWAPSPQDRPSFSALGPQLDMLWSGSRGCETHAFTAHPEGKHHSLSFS

[4] = molecular target: T1, Epidermal growth factor receptor; experiment: Inhibition of EGFR phosphorylation in human A431 cells; assay type: cell-based
[5] = In vivo inhibition of CD69 expression in po dosed mouse; assay type: functional
[6] = Inhibition of goat anti-human IgM F(ab')-stimulated CD86 cell surface expression in human PBMC preincubated for 2 hrs followed by anti-human IgM stimulation for 18 hrs by flow cytometric analysis; assay type: functional, tissue-based
[7] = system: Blood; experiment: Inhibition of mouse anti-human anti-IgD-stimulated CD86 cell surface expression in human whole blood preincubated for 2 hrs followed by anti-human anti-IgD stimulation for 18 hrs by flow cytometric analysis; assay type: functional, tissue-based
[8] = molecular target: EGFR (phosphorylation) (Homo sapiens, UniProt P00533); experiment: Inhibition of EGFR phosphorylation in human A431 cells at 10000 nM relative to control; assay type: cell-based
Sequence of EGFR (phosphorylation) (P00533 whole entry): as the sequence (P00533 whole entry, the tested form may be a part) above

Sequence of Tyrosine-protein kinase BTK (Q06187 whole entry, the tested form may be a part): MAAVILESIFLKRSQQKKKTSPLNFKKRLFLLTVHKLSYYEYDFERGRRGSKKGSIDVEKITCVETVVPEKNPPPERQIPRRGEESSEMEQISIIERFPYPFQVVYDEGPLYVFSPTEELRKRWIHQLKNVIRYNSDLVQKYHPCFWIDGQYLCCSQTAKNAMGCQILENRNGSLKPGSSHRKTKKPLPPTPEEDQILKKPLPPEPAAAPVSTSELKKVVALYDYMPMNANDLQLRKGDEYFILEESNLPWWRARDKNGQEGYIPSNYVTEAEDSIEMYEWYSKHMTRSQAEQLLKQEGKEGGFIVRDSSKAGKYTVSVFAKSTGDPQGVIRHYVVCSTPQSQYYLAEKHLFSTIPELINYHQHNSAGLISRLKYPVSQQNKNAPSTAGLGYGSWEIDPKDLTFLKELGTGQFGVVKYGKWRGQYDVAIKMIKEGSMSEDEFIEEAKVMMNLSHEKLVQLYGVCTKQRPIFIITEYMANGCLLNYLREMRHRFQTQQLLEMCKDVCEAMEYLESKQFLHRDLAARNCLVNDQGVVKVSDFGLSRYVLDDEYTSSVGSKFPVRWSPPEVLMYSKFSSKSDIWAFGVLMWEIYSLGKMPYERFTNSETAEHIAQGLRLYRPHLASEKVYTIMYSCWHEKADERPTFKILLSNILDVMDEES

IC50 [1]	IC50 [2]	IC50 [3]	EC50 [4]	EC50 [6]	EC50 [7]	inhibition at 10 µM [8]	SMILES	ED50 [5]
0.54 nM	> 1000 nM	> 1000 nM	> 1000 nM				CC#CC(=O)Nc1cc2c(Oc3ccc(C(=O)Nc4ccccn4)cc3)ccnc2cc1OCCN1CCOCC1	
1.6 nM	138 nM	174 nM	> 1000 nM				COc1cc2nccc(Oc3ccc(C(=O)Nc4ccccn4)cc3)c2cc1NC(=O)C#CCCN1CCOCC1	13 mg/kg
1.2 nM	958 nM	838 nM		21 nM	267 nM	36%	C=CC(=O)Nc1ccc2nccc(Oc3ccc(C(=O)Nc4cc(CC)ccn4)cc3)c2c1	

Reference: ChEMBL document CHEMBL4725253, “Discovery of quinoline-based irreversible BTK inhibitors” (Bioorg Med Chem Lett, 2020)
